We go through 6 compounds from BindingDB's records for doi:10.1016/j.chembiol.2017.01.003 (The University of Queensland, 2017).

As a reminder, the IC50 is the midpoint of a concentration-inhibition curve.

Structures are written as SMILES.

The experiment deals with T1, Transcription factor SOX-18 (Mouse, UniProt P43680).
T1 sequence (P43680 whole entry): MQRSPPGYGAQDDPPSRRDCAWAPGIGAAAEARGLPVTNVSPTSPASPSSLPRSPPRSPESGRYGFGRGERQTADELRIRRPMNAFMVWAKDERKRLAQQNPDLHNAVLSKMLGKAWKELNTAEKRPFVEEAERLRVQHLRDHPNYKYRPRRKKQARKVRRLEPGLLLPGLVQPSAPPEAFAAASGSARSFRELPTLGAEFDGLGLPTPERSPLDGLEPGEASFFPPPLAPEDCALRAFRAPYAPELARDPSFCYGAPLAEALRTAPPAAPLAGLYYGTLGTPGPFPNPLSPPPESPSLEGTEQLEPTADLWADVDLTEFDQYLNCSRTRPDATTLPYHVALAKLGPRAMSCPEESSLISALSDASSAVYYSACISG
The experiment is described as follows: Fluorescence Polarization Assay. As to conditions: pH 7.5; 37 °C. How it is done: The DNA-binding competition assay was performed in 25 μL, in black 384-well plates, using either 30 mM HEPES (N-2-Hydroxyethylpiperazine-N'-2-Ethanesulfonic Acid) (pH 7.5, with 100 mM KCl, 40 mM NaCl, 10 mM NH4OAc, 10 mM Guanidinium, 2 mM MgCl2, 0.5 mM EDTA, 0.01% NP-40) for mouse full length SOX18, or Tris-NaCl (10 mM Tris pH 8.0 and 100 mM NaCl) for SOX-HMG fragments. All experiments were performed using a 40bp double-stranded Prox1-DNA element with 5' fluorescein amidite (FAM) label (Sigma Proligo or InVitrogen). Optimum binding levels were obtained at 200 nM of mouse full length SOX18 and 60 nM of SOX-HMG fragment, in presence of 5 nM labelled DNA. Controls consisted of free labelled DNA (low FP milli-Polarization index, mP), labelled DNA in presence of protein (negative control, high mP), and labelled DNA and protein in presence of 400 time competing excess of unlabelled DNA (positive control, low mP). Depending on compound, final DMSO concentrations ranged from 2 to 3.33% v/v. After mixing protein, DNA probe and compound, plates were sealed and briskly agitated in the dark for 5 minutes at room temperature, 10 minutes at 37 °C, and 30 minutes at room temperature, before reading fluorescencepolarization on a Tecan M1000Pro (λexc = 485 nm, λem = 525 nm). All experiments were performed intriplicates.
On the technique in general: Polarisation of emitted light reports the rotation of a fluorescent probe.
`O=C(O)c1c(O)cccc1COCCC1C=CC=CC1` (stereo unspecified) [Sm5]: the half-maximal inhibitory concentration (IC50) turned out to be 1110 µM.

In turn, `Cc1cccc2c(=O)c3c(O)cc(O)cc3oc12` [Sm13] gave an IC50 of 481 µM.

`O=C(COc1ccc2ccccc2c1)c1ccc(O)cc1O` [Sm12] returned a half-maximal inhibitory concentration (IC50) of 2880 µM. Compared with the last compound, the IC50 is about 6-fold higher.

As for `O=C(O)c1c(O)cccc1CCc1ccc2ccccc2c1` [Sm4], half-maximal inhibition (IC50) was put at 97.5 µM.

With `COc1cccc(CCCCCCc2ccccc2)c1C(=O)O` [Sm8], the IC50 came out at 327 µM. Against the preceding compound, the IC50 is about 3.4-fold higher.

Take `COc1ccc(OCC(=O)c2ccc(O)cc2O)cc1` [Sm11]: the IC50 turned out to be 3800 µM. Compared with the last compound, the IC50 is about 12-fold higher.
